Experimental data reported in patent publication US8217029B2, “Oxazolidinone antibiotics” (Actelion Pharmaceuticals Ltd, priority 2007, dated 2012).

tested on: S aureus A798; test: Minimal inhibitory concentration (MIC), microdilution method in cation-adjusted Mueller-Hinton Broth following NCCLS guidelines; assay type: cell-based; details: pH of test medium 7.2-7.3
Procedure: These assays have been performed following the description given in “Methods for dilution Antimicrobial Susceptibility Tests for Bacteria that Grow Aerobically, 4th ed.; Approved standard: NCCLS Document M7-A4; National Committee for Clinical Laboratory Standards Villanova, Pa., USA, 1997”. Minimal inhibitory concentrations (MICs; mg/l) were determined in cation-adjusted Mueller-Hinton Broth by a microdilution method following NCCLS guidelines (National Committee for Clinical Laboratory Standards. Methods for Dilution Antimicrobial Susceptibility). The pH of the test medium was 7.2-7.3. All Example compounds were tested against several Gram positive and Gram negative bacteria.

Row | SMILES | MIC
1 | COc1ccc2nccc(N3CCC(CNC[C@@H]4CN(c5ccc6c(c5)NC(=O)CS6)C(=O)O4)C3)c2n1 (mixture of isomers) [Example 80, 6-[(R)-5-({[(RS)-1-(6-Methoxy-[1,5]naphthyridin-4-yl)-pyrrolidin-3-ylmethyl]-amino}-methyl)-2-oxo-oxazolidin-3-yl]-4H-benzo[1,4]thiazin-3-one] | ≤ 0.031 µg/mL
2 | COc1ccc2nccc(N3CCC(CNC(=O)[C@@H]4CN(c5ccc6c(c5)OCCO6)C(=O)O4)C3)c2n1 (mixture of isomers) [Example 81, (S)-3-(2,3-Dihydro-benzo[1,4]dioxin-6-yl)-2-oxo-oxazolidine-5-carboxylic acid [(RS)-1-(6-methoxy-[1,5]naphthyridin-4-yl)-pyrrolidin-3-ylmethyl]-amide] | 0.125 µg/mL
3 | COc1ccc2nccc(N3CCC(CNC(=O)[C@@H]4CN(c5ccc(C)c(F)c5)C(=O)O4)C3)c2n1 (mixture of isomers) [Example 82, (S)-3-(3-Fluoro-4-methyl-phenyl)-2-oxo-oxazolidine-5-carboxylic acid [(RS)-1-(6-methoxy-[1,5]naphthyridin-4-yl)-pyrrolidin-3-ylmethyl]-amide] | ≤ 0.031 µg/mL
4 | COc1ccc2nccc(N3C[C@@H](CNC[C@@H]4CN(c5ccc6c(c5)NC(=O)CS6)C(=O)O4)[C@@H](O)C3)c2n1 (mixture of isomers) [Example 83, 6-[(R)-5-({[(3RS)-(4RS)-4-Hydroxy-1-(6-methoxy-[1,5]naphthyridin-4-yl)-pyrrolidin-3-ylmethyl]-amino}-methyl)-2-oxo-oxazolidin-3-yl]-4H-benzo[1,4]thiazin-3-one] | 0.25 µg/mL
5 | COc1ccc2nccc(N3CCC(C(=O)NC[C@@H]4CN(c5ccc(C)c(F)c5)C(=O)O4)C3)c2n1 (mixture of isomers) [Example 84, (RS)-1-(6-Methoxy-[1,5]naphthyridin-4-yl)-pyrrolidine-3-carboxylic acid [(R)-3-(3-fluoro-4-methyl-phenyl)-2-oxo-oxazolidin-5-ylmethyl]-amide] | ≤ 0.031 µg/mL
6 | COc1ccc2nccc(N3CCC(C(=O)NC[C@@H]4CN(c5ccc6c(c5)OCCO6)C(=O)O4)C3)c2n1 (mixture of isomers) [Example 85, (RS)-1-(6-Methoxy-[1,5]naphthyridin-4-yl)-pyrrolidine-3-carboxylic acid [(R)-3-(2,3-dihydro-benzo[1,4]dioxin-6-yl)-2-oxo-oxazolidin-5-ylmethyl]-amide] | 0.25 µg/mL
7 | COc1ccc2nccc(N3CC[C@H](NCCC4CN(c5ccc6c(c5)NC(=O)CS6)C(=O)O4)C3)c2n1 (mixture of isomers) [Example 86, 6-((RS)-5-{2-[(S)-1-(6-Methoxy-[1,5]naphthyridin-4-yl)-pyrrolidin-3-ylamino]-ethyl}-2-oxo-oxazolidin-3-yl)-4H-benzo[1,4]thiazin-3-one] | ≤ 0.031 µg/mL
8 | COc1ccc2nccc(N3CC[C@@H](NCCC4CN(c5ccc6c(c5)NC(=O)CS6)C(=O)O4)C3)c2n1 (mixture of isomers) [Example 87, 6-((RS)-5-{2-[(R)-1-(6-Methoxy-[1,5]naphthyridin-4-yl)-pyrrolidin-3-ylamino]-ethyl}-2-oxo-oxazolidin-3-yl)-4H-benzo[1,4]thiazin-3-one] | ≤ 0.031 µg/mL
9 | COc1ccc2nccc(N3CC[C@@H]4CN(C[C@@H]5CN(c6ccc7c(c6)OCCO7)C(=O)O5)C[C@@H]43)c2n1 (mixture of isomers) [Example 90, (R)-3-(2,3-Dihydro-benzo[1,4]dioxin-6-yl)-5-{[(3aR*,6aR*)-1-(6-methoxy-[1,5]naphthyridin-4-yl)-hexahydro-pyrrolo[3,4-b]pyrrol-5-yl]-methyl}-oxazolidin-2-one] | 4 µg/mL
10 | COc1ccc2nccc(N3CC[C@@H]4CN(C(=O)[C@@H]5CN(c6ccc7c(c6)OCCO7)C(=O)O5)C[C@@H]43)c2n1 (mixture of isomers) [Example 92, (S)-3-(2,3-Dihydro-benzo[1,4]dioxin-6-yl)-5-[(3aR*,6aR*)-1-(6-methoxy-[1,5]naphthyridin-4-yl)-hexahydro-pyrrolo[3,4-b]pyrrole-5-carbonyl]-oxazolidin-2-one] | 0.25 µg/mL
11 | COc1ccc2nccc(N3C[C@H]4CCN(C[C@@H]5CN(c6ccc7c(c6)NC(=O)CS7)C(=O)O5)[C@H]4C3)c2n1 (mixture of isomers) [Example 93, 6-{(R)-5-{[(3aR*,6aR*)-5-(6-Methoxy-[1,5]naphthyridin-4-yl)-hexahydro-pyrrolo[3,4-b]pyrrol-1-yl]-methyl}-2-oxo-oxazolidin-3-yl}-4H-benzo[1,4]thiazin-3-one] | ≤ 0.031 µg/mL
12 | COc1ccc2nccc(N3C[C@H]4CCN(C[C@@H]5CN(c6ccc7c(c6)OCCO7)C(=O)O5)[C@H]4C3)c2n1 (mixture of isomers) [Example 94, (R)-3-(2,3-Dihydro-benzo[1,4]dioxin-6-yl)-5-{[(3aR*,6aR*)-5-(6-methoxy-[1,5]naphthyridin-4-yl)-hexahydro-pyrrolo[3,4-b]pyrrol-1-yl]-methyl}-oxazolidin-2-one] | 2 µg/mL
13 | COc1ccc2nccc(N3C[C@H]4CCN(C(=O)[C@@H]5CN(c6ccc7c(c6)OCCO7)C(=O)O5)[C@H]4C3)c2n1 (mixture of isomers) [Example 95, (S)-3-(2,3-Dihydro-benzo[1,4]dioxin-6-yl)-5-[(3aR*,6aR*)-5-(6-methoxy-[1,5]naphthyridin-4-yl)-hexahydro-pyrrolo[3,4-b]pyrrole-1-carbonyl]-oxazolidin-2-one] | 0.125 µg/mL
14 | COc1ccc2nccc(N3CCCC(NC[C@@H]4CN(c5ccc6c(c5)OCCO6)C(=O)O4)C3)c2n1 (mixture of isomers) [Example 102, (R)-3-(2,3-Dihydro-benzo[1,4]dioxin-6-yl)-5-{[(RS)-1-(6-methoxy-[1,5]naphthyridin-4-yl)-piperidin-3-ylamino]-methyl}-oxazolidin-2-one] | 4 µg/mL
15 | COc1ccc2nccc(N3CCC(CN(C)C[C@@H]4CN(c5ccc6c(c5)NC(=O)CS6)C(=O)O4)C3)c2n1 (mixture of isomers) [Example 117, 6-[(R)-5-({[(RS)-1-(6-Methoxy-[1,5]naphthyridin-4-yl)-pyrrolidin-3-ylmethyl]-methyl-amino}-methyl)-2-oxo-oxazolidin-3-yl]-4H-benzo[1,4]thiazin-3-one] | ≤ 0.031 µg/mL
16 | COc1ccc2nccc(N3CCC(O)(CNC[C@@H]4CN(c5ccc6c(c5)NC(=O)CS6)C(=O)O4)C3)c2n1 (mixture of isomers) [Example 129, 6-[(R)-5-({[(RS)-3-Hydroxy-1-(6-methoxy-[1,5]naphthyridin-4-yl)-pyrrolidin-3-ylmethyl]-amino}-methyl)-2-oxo-oxazolidin-3-yl]-4H-benzo[1,4]thiazin-3-one] | 0.063 µg/mL
17 | COc1ccc2nccc(C3(O)CCN(CC4CN(c5ccc6c(c5)OCCO6)C(=O)O4)CC3)c2n1 (racemic) [Example 3, (RS)-3-(2,3-Dihydro-benzo[1,4]dioxin-6-yl)-5-[4-hydroxy-4-(6-methoxy-[1,5]naphthyridin-4-yl)-piperidin-1-ylmethyl]-oxazolidin-2-one] | ≤ 0.031 µg/mL
18 | COc1ccc2ncnc(N3CCC(O)(CC4CN(c5ccc6c(c5)OCCO6)C(=O)O4)CC3)c2c1 (racemic) [Example 4, (RS)-3-(2,3-Dihydro-benzo[1,4]dioxin-6-yl)-5-[4-hydroxy-1-(6-methoxy-quinazolin-4-yl)-piperidin-4-ylmethyl]-oxazolidin-2-one] | ≤ 0.031 µg/mL
